According to ChEMBL document CHEMBL4340503, “Antiviral activities of Janus-type nucleosides and their related oxime-intermediates” (Bioorg Med Chem, 2019):
In brackets after ≈: the same amount, converted by molar mass.

Legend:
[1] = system: Human alphaherpesvirus 1; assay: Antiviral activity against Herpes simplex virus 1 infected in African green monkey Vero cells assessed as inhibition of virus-induced cytopathogenic effect by microscopic analysis; format: functional, organism-based; conditions: Human alphaherpesvirus 1, Vero
[2] = system: Influenza A virus H3N2; assay: Antiviral activity against Influenza A virus H3N2 infected in African green monkey Vero cells assessed as inhibition of virus-induced cytopathogenic effect by microscopic analysis; format: functional, organism-based
[3] = Cytotoxicity against African green monkey Vero cells infected with Herpes simplex virus 1 after 72 hrs by MTT assay; format: cell-based; conditions: chlorocebus sabaeus, read-out: TC50
[4] = (§1) Selectivity index, ratio of TC50 against African green monkey Vero cells infected with Herpes simplex virus 1 after 72 hrs by MTT assay to IC50 against Herpes simplex virus 1 infected in African green monkey Vero cells assessed as inhibition of virus-induced cytopathogenic effect by microscopic analysis; format: toxicity; conditions: read-out: Selectivity Index
[5] = as §1, with “Influenza A” for “Herpes simplex”, “H3N2” for “1”; format: toxicity; conditions: read-out: Selectivity Index
[6] = Cytotoxicity against African green monkey Vero cells infected with Hepatitis C virus after 72 hrs by MTT assay; format: cell-based; conditions: chlorocebus sabaeus, read-out: TC50
[7] = Cytotoxicity against African green monkey Vero cells infected with Coxsackievirus B3 after 72 hrs by MTT assay; format: cell-based; conditions: chlorocebus sabaeus, read-out: TC50
[8] = Selectivity index, ratio of TC50 against African green monkey Vero cells infected with Coxsackievirus B3 after 72 hrs by MTT assay to IC50 against Coxsackievirus B3 infected in African green monkey Vero cells assessed as inhibition of virus-induced cytopathogenic effect by microscopic analysis; format: toxicity; conditions: read-out: Selectivity Index
[9] = system: Human alphaherpesvirus 2; assay: Antiviral activity against Herpes simplex virus 2 infected in African green monkey Vero cells assessed as inhibition of virus-induced cytopathogenic effect by microscopic analysis; format: functional, organism-based; conditions: Human alphaherpesvirus 2, Vero
[10] = Selectivity index, ratio of TC50 against African green monkey Vero cells infected with Human papillomavirus after 72 hrs by MTT assay to IC50 against Human papillomavirus infected in African green monkey Vero cells assessed as inhibition of virus-induced cytopathogenic effect by microscopic analysis; format: toxicity; conditions: read-out: Selectivity Index
[11] = as §1, with “2” for “1”; format: toxicity; conditions: read-out: Selectivity Index
[12] = system: Human papillomavirus; assay: Antiviral activity against Human papillomavirus infected in African green monkey Vero cells assessed as inhibition of virus-induced cytopathogenic effect by microscopic analysis; format: functional, organism-based
[13] = Cytotoxicity against African green monkey Vero cells infected with Human papillomavirus after 72 hrs by MTT assay; format: cell-based; conditions: chlorocebus sabaeus, read-out: TC50
[14] = Selectivity index, ratio of TC50 against African green monkey Vero cells infected with Hepatitis B virus after 72 hrs by MTT assay to IC50 against Hepatitis B virus infected in African green monkey Vero cells assessed as inhibition of virus-induced cytopathogenic effect by microscopic analysis; format: toxicity; conditions: read-out: Selectivity Index
[15] = Cytotoxicity against African green monkey Vero cells infected with Herpes simplex virus 2 after 72 hrs by MTT assay; format: cell-based; conditions: chlorocebus sabaeus, read-out: TC50
[16] = Cytotoxicity against African green monkey Vero cells infected with Influenza A virus H3N2 after 72 hrs by MTT assay; format: cell-based; conditions: chlorocebus sabaeus, read-out: TC50
[17] = system: Hepatitis C virus; assay: Antiviral activity against Hepatitis C virus infected in African green monkey Vero cells assessed as inhibition of virus-induced cytopathogenic effect by microscopic analysis; format: functional, organism-based, Hepacivirus hominis
[18] = Selectivity index, ratio of TC50 against African green monkey Vero cells infected with Hepatitis C virus after 72 hrs by MTT assay to IC50 against Hepatitis C virus infected in African green monkey Vero cells assessed as inhibition of virus-induced cytopathogenic effect by microscopic analysis; format: toxicity; conditions: read-out: Selectivity Index
[19] = system: Coxsackievirus B3; assay: Antiviral activity against Coxsackievirus B3 infected in African green monkey Vero cells assessed as inhibition of virus-induced cytopathogenic effect by microscopic analysis; format: functional, organism-based; conditions: Enterovirus B
[20] = Cytotoxicity against African green monkey Vero cells infected with Hepatitis B virus after 72 hrs by MTT assay; format: cell-based; conditions: chlorocebus sabaeus, read-out: TC50

SMILES | IC50 [1] | IC50 [2] | CC50 at 72 h [3] | selectivity ratio at 72 h [4] | other results
Nc1nc(=O)n([C@@H]2O[C@H](CO)[C@@H](O)[C@H]2O)c2nc[nH]c(=O)c12 | > 0.79 µg/mL | > 1.37 µg/mL | 2.97 µg/mL (≈ 9.54 µM) | – | –
C[C@H]1O[C@@H](n2c(=O)nc(N)c3c(=O)[nH]c(N)nc32)[C@H](O)[C@@H]1O | 2.08 µg/mL (≈ 6.7 µM) | > 4.12 µg/mL | 8.56 µg/mL (≈ 27.6 µM) | 4.1 | –
Nc1nc2[nH]c(=O)nc(N)c2c(=O)[nH]1 | > 9.26 µg/mL | 27.8 µg/mL (≈ 143 µM) | 16 µg/mL (≈ 82.6 µM) | – | –
O/N=C/c1c(Cl)ncnc1NCc1ccc(Br)cc1 | 0.82 µg/mL (≈ 2.4 µM) | – | 12.8 µg/mL (≈ 37.6 µM) | 15.7 | –
Nc1ncn([C@@H]2O[C@H](CO)[C@@H](O)[C@H]2O)c2nc(=O)[nH]c(=O)c1-2 | > 333 µg/mL | > 333 µg/mL | 577 µg/mL (≈ 1850 µM) | – | –
O/N=C/c1c(Cl)ncnc1NCc1ccccc1 | 1.92 µg/mL (≈ 7.31 µM) | – | 7.41 µg/mL (≈ 28.2 µM) | 3.86 | –
Nc1ncn([C@H]2O[C@@H](CO)[C@H](O)[C@@H]2O)c2nc(=O)[nH]c(=O)c1-2 | 333 µg/mL (≈ 1070 µM) | > 333 µg/mL | 577 µg/mL (≈ 1850 µM) | 1.7 | –
COc1ccc(Cn2c(=O)nc(N)c3c(OC)nc(N)nc32)cc1 | 12.9 µg/mL (≈ 39.3 µM) | 18.5 µg/mL (≈ 56.4 µM) | 55.6 µg/mL (≈ 169 µM) | 4.3 | selectivity ratio at 72 h [5]: 3.3
COc1nc(N)nc2[nH]c(=O)nc(N)c12 | 7.31 µg/mL (≈ 35.1 µM) | > 9.26 µg/mL | 48.1 µg/mL (≈ 231 µM) | 6.6 | –
CC(C)(C)c1ccc(CNc2ncnc(Cl)c2/C=N\O)cc1 | 0.48 µg/mL (≈ 1.51 µM) | – | 1.43 µg/mL (≈ 4.49 µM) | 2.97 | –
O/N=C/c1c(Cl)ncnc1NCc1ccc(Cl)cc1 | 0.57 µg/mL (≈ 1.92 µM) | – | 3.18 µg/mL (≈ 10.7 µM) | 5.58 | –
Nc1ccc(CNc2ncnc(Cl)c2/C=N/O)cc1 | 0.47 µg/mL (≈ 1.69 µM) | – | 2.47 µg/mL (≈ 8.89 µM) | 5.26 | –
Cc1ccc(CNc2ncnc(Cl)c2/C=N/O)cc1 | 0.21 µg/mL (≈ 0.759 µM) | – | 1.11 µg/mL (≈ 4.01 µM) | 5.29 | –
COc1ccccc1CCNc1ncnc(Cl)c1/C=N/O | 3.56 µg/mL (≈ 11.6 µM) | – | 80.1 µg/mL (≈ 261 µM) | 22.5 | –
COc1ccccc1Nc1ncnc(Cl)c1/C=N/O | 1.43 µg/mL (≈ 5.13 µM) | – | 8.9 µg/mL (≈ 31.9 µM) | 6.22 | –
Nc1nc2c(c(N)nc(=O)n2[C@@H]2O[C@H](CO)[C@@H](O)[C@H]2O)c(=O)[nH]1 | > 83.3 µg/mL | 9.26 µg/mL (≈ 28.4 µM) | 144 µg/mL (≈ 442 µM) | – | selectivity ratio at 72 h [5]: 13
COc1ccc(CNc2ncnc(Cl)c2/C=N/O)cc1 | 0.35 µg/mL (≈ 1.2 µM) | – | 2.47 µg/mL (≈ 8.44 µM) | 7.06 | –

SMILES | IC50 [1] | IC50 [2] | CC50 at 72 h [3] | selectivity ratio at 72 h [4] | other results
Nc1ncnc2c1c(=O)[nH]c(=O)n2[C@H]1O[C@@H](CO)[C@H](O)[C@@H]1O | > 30.2 µg/mL | > 33.3 µg/mL | 40.5 µg/mL (≈ 130 µM) | – | –
COc1ccccc1CCCNc1ncnc(Cl)c1/C=N/O | > 0.19 µg/mL | – | 1.29 µg/mL (≈ 4.02 µM) | – | –
CC(C)(C)c1ccc(CNc2ncnc(Cl)c2/C=N/O)cc1 | 0.05 µg/mL (≈ 0.157 µM) | 0.27 µg/mL (≈ 0.847 µM) | 0.26 µg/mL (≈ 0.816 µM) | 5.2 | CC50 at 72 h [6]: 19.3 µg/mL (≈ 60.5 µM); CC50 at 72 h [7]: 0.64 µg/mL (≈ 2.01 µM); selectivity ratio at 72 h [8]: 4.92; IC50 [9]: 0.04 µg/mL (≈ 0.125 µM); selectivity ratio at 72 h [10]: 1.75; selectivity ratio at 72 h [11]: 13.2; IC50 [12]: 5.6 µg/mL (≈ 17.6 µM); CC50 at 72 h [13]: 9.8 µg/mL (≈ 30.7 µM); selectivity ratio at 72 h [14]: 17.9; CC50 at 72 h [15]: 0.53 µg/mL (≈ 1.66 µM); CC50 at 72 h [16]: 0.48 µg/mL (≈ 1.51 µM); selectivity ratio at 72 h [5]: 1.78; IC50 [17]: 1.15 µg/mL (≈ 3.61 µM); selectivity ratio at 72 h [18]: 17.8; IC50 [19]: 0.12 µg/mL (≈ 0.376 µM); CC50 at 72 h [20]: 0.0397 µg/mL (≈ 0.124 µM)
Nc1nc2c(c(N)nc(=O)n2[C@H]2C[C@H](O)[C@@H](CO)O2)c(=O)[nH]1 | > 167 µg/mL | > 250 µg/mL | 347 µg/mL (≈ 1120 µM) | – | –
Nc1ncn([C@H]2C[C@H](O)[C@@H](CO)O2)c2nc(=O)[nH]c(=O)c1-2 | > 333 µg/mL | > 111 µg/mL | 577 µg/mL (≈ 1960 µM) | – | –
COc1ccccc1CNc1ncnc(Cl)c1/C=N/O | 0.04 µg/mL (≈ 0.137 µM) | 0.27 µg/mL (≈ 0.922 µM) | 0.86 µg/mL (≈ 2.94 µM) | 21.5 | CC50 at 72 h [6]: 32.4 µg/mL (≈ 111 µM); CC50 at 72 h [7]: 0.86 µg/mL (≈ 2.94 µM); selectivity ratio at 72 h [8]: 17.2; IC50 [9]: 0.29 µg/mL (≈ 0.991 µM); selectivity ratio at 72 h [10]: 1.71; selectivity ratio at 72 h [11]: 3.83; IC50 [12]: 7.9 µg/mL (≈ 27 µM); CC50 at 72 h [13]: 13.5 µg/mL (≈ 46.1 µM); selectivity ratio at 72 h [14]: 25.3; CC50 at 72 h [15]: 1.11 µg/mL (≈ 3.79 µM); CC50 at 72 h [16]: 1.19 µg/mL (≈ 4.07 µM); selectivity ratio at 72 h [5]: 4.41; IC50 [17]: 1.19 µg/mL (≈ 4.07 µM); selectivity ratio at 72 h [18]: 27.2; IC50 [19]: 0.05 µg/mL (≈ 0.171 µM); CC50 at 72 h [20]: 0.063 µg/mL (≈ 0.215 µM)
CO/N=C\c1c(Cl)ncnc1NCc1ccccc1OC | 14.4 µg/mL (≈ 46.8 µM) | – | 80.1 µg/mL (≈ 261 µM) | 5.58 | –
CO/N=C/c1c(Cl)ncnc1NCc1ccccc1OC | 4.28 µg/mL (≈ 14 µM) | – | 38.5 µg/mL (≈ 126 µM) | 9 | –
Nc1ncnc2c1c(=O)[nH]c(=O)n2[C@@H]1O[C@H](CO)[C@@H](O)[C@@H]1O | > 83.3 µg/mL | > 333 µg/mL | > 250 µg/mL | – | –
C[C@H]1O[C@@H](n2cnc(N)c3c(=O)[nH]c(=O)nc2-3)[C@H](O)[C@@H]1O | 167 µg/mL (≈ 564 µM) | 167 µg/mL (≈ 564 µM) | 500 µg/mL (≈ 1690 µM) | 3 | selectivity ratio at 72 h [5]: 3
O/N=C/c1c(Cl)ncnc1NCc1ccc(F)cc1 | > 2.47 µg/mL | – | 12.8 µg/mL (≈ 45.7 µM) | – | –
Nc1ncn([C@@H]2O[C@H](CO)[C@@H](O)[C@@H]2O)c2nc(=O)[nH]c(=O)c1-2 | > 0.59 µg/mL | > 0.46 µg/mL | 1.78 µg/mL (≈ 5.72 µM) | – | –
COc1ccc(Cn2c(=O)nc(N)c3c(=O)[nH]c(N)nc32)cc1 | > 6.17 µg/mL | > 55.6 µg/mL | 18.5 µg/mL (≈ 58.9 µM) | – | –
COc1cccc(CNc2ncnc(Cl)c2/C=N/O)c1 | 0.48 µg/mL (≈ 1.64 µM) | – | 2.31 µg/mL (≈ 7.89 µM) | 4.81 | –
Nc1ncn([C@@H]2O[C@H](CO)C[C@H]2O)c2nc(=O)[nH]c(=O)c1-2 | 75.9 µg/mL (≈ 257 µM) | > 83.3 µg/mL | 347 µg/mL (≈ 1170 µM) | 4.6 | –
COc1ccccc1CNc1ncnc(Cl)c1/C=N\O | 4.79 µg/mL (≈ 16.4 µM) | – | 10.7 µg/mL (≈ 36.5 µM) | 2.23 | –
NC(=O)c1ncn([C@@H]2O[C@H](CO)[C@@H](O)[C@H]2O)n1 [RIBAVIRIN] | 38.5 µg/mL (≈ 158 µM) | – | > 200 µg/mL | > 5.2 | –
